The target of data set [1] is T1, DENV2 sE2 (Dengue virus type 2, UniProt P14340). Description: biochemical. Format: binding, Dengue virus 2.
The next data set concerns VSV-eGFP. Description: microbe, parasite or virus in culture. Format: cell-based, vesicular stomatitis virus. Particulars: for inhibition at 5 µM / inhibition at 10 µM: Vesicular stomatitis virus, 6 h; for inhibition at 5 µM: read-out: VSV 5 μM; for inhibition at 10 µM: read-out: VSV 10 μM.
Data set [2] deals with T1, DENV2 sE2. The experiment in a line: biochemical. Format: binding, Dengue virus 2. The note with it: for IC50: IC50 (AlphaScreen). Background: In Alpha technology, singlet oxygen from a donor bead excites a nearby acceptor bead.
Data set [3] can be described thus: Dynamic light scattering particle size. Format: physicochemical. Particulars: DLS, 40 μM compound; for Particle size (with Tween 20): with detergent; for Particle size (no Tween): without detergent.
The next data set can be described thus: in vitro. Particulars: hamster.
A further data set concerns the target AmpC β-lactamase (Escherichia coli, UniProt P00811). The experiment in a line: biochemical.
Data set [4] in a line: Mouse microsomal stability. Particulars: mouse microsomes.
For a further data set, the system named is DENV2. The experiment in a line: Antiviral activity (viral infectivity) assay, single-cycle viral yield. Format: cell-based, Dengue virus 2. Particulars: for IC90: Dengue virus.
The nature of data set [5]: Cytotoxicity assay (CellTiter-Glo). Particulars: hamster. In general terms: Cellular ATP, detected with luciferase, serves as a proxy for viable cell number.
Protocol: (§1) BHK21 cells (MEM with 2% FBS) were incubated with varying concentrations of inhibitor in a 96-well white plate for 24 hours at 37° C. and 5% CO2. CellTiter-Glo (Promega) solution was used to measure viability following the manufacturer's instructions. Luminescence was measured using a Biotek Synergy plate reader. […] The maximum concentration tested was 100 μM.
Another data set relates to DENV1, 2, 3, 4; ZIKV. Description: Plaque reduction assay (PRNT). Format: cell-based. Particulars: Zika virus, DENV1, read-out: EC50 (PRNT). On the procedure: DENV1, 2, 3, 4 were tested on BHK-21 cells, and ZIKV was tested on Vero cells. Virus inocula were diluted in EBSS to 2500 pfu/ml as the final concentration, and were pre-incubated with different concentrations of small molecule inhibitors (2% DMSO vol/vol final concentration) for 45 min at 37° C., 5% CO2. The mixture (200 μl, 500 pfu of virus) was then added to cells for 1 hour (37° C., 5% CO2) to allow infection, after which the inoculum was removed, and the cells were washed with 1×PBS to remove unbound virus and compound. Cells were overlaid with carboxylmethylcellulose and incubated at 37° C., 5% CO2 to allow the formation of plaques (4 days for DENV1, 2, 3, 4 and 2-3 days for ZIKV). The cells were fixed and plaques visualized by staining of the cell monolayers with crystal violet Empirical analysis was performed to determine the PRNT50 (EC50 (PRNT)) value, defined as the inhibitor concentration needed to reduce plaque formation by 50%.
(Plaque reduction counts the foci of infection that form in a cell layer.)

[6] abbreviates: concentration that inhibits 50% luminescence signal in the AlphaScreen competition assay, Table 1.
Where [7] appears, read: IC50 (AmpC, Triton), with detergent (0.01% Triton X-100).
[8] abbreviates: T1/2 (mouse microsome), mouse microsomal stability.
Setting [9] is: DENV2, read-out: IC90 versus DENV2.
The mark [10] stands for this setting: DENV2, concentration that reduces single-cycle viral yield by 10-fold, read-out: IC90 (DENV2 infectivity).

Where “and” joins values, the source holds several entries; their conditions need not be identical. Equal values may be shown once. Read-outs that look alike come from different tables or passages of the source. A value given as a limit tells only on which side of the number the result lay.

Here are results for 14 molecules from patent publication US20200360381A1, “COMPOUNDS FOR TREATING DENGUE VIRUS INFECTION AND OTHER VIRAL INFECTIONS” (priority 2017, published 2020).

Chain of AmpC β-lactamase (P00811 20-377): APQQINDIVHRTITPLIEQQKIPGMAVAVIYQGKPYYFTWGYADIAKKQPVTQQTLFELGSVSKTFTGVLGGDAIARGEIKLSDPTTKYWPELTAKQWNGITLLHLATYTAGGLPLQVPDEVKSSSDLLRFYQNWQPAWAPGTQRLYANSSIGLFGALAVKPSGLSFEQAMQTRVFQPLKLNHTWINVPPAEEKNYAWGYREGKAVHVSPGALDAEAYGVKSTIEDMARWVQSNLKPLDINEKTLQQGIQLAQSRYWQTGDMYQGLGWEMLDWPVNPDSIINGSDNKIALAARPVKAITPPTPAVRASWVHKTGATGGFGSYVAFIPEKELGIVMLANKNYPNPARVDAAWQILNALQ
Protocol for in vitro: as §1

On DENV2 sE2 [1], `Cc1cc(C(C#N)c2ccc(Cl)cc2)c(Cl)cc1NC(=O)c1cc(I)cc(I)c1O` (stereo not drawn) [Compound S4105] had a dissociation constant (Kd) of 0.9 µM. The “VSV 5 μM” value in the data set with VSV-eGFP came out at 60%. For the same molecule, the “VSV 10 μM” value in the data set with VSV-eGFP was 64%. Moreover, the IC50 was 0.6 ± 0.2 µM at DENV2 sE2 [2] (setting [6]); 19.5 µM against AmpC β-lactamase (IC50 (AmpC), without detergent); over 100 µM at AmpC β-lactamase (setting [7]). For the same molecule, in data set [3], the “Particle size (with Tween 20)” value is given as 13.1 (40 μM) nm. Further, in data set [3], the “Particle size (no Tween)” value is on record as 82 (40 μM) nm. This molecule gave a CC50 at 24 h in “in vitro” of 50 µM. The same molecule yielded a half-life in [4] (setting [8]) of over 120 min. Besides, the IC90 in the data set on DENV2 (setting [9]) turned out to be 3 µM; in the data set on DENV2 (setting [10]), 0.8 ± 0.3 µM.
`Cc1nc2c(C(=O)NCc3cccnc3)cnn2c(O)c1Cc1ccc(F)cc1` [JBJ-16-105] displayed an IC50 against DENV2 sE2 [2] (Table 2) of over 10 µM. Also, the “(Anti-DENV2)% at 3 μM” value with DENV2 (3 μM) was 20%. Besides, the “(Anti-DENV2)% at 10 μM” value in the data set with DENV2 (10 μM) came out at 86%.
For `COC(=O)c1ccc(Cl)cc1NC(=O)CSc1ncc(S(=O)(=O)c2ccc(Br)cc2)c(=O)[nH]1` [Compound C200-5340], binding at DENV2 sE2 [1] was characterised by a dissociation constant (Kd) of 7.1 µM. In addition, in the data set on VSV-eGFP, the “inhibition of VSV-eGFP in counter screen” value was “less potency”, the inhibition at 5 µM is 20% and the inhibition at 10 µM amounted to 51%. Moreover, the IC50 on DENV2 sE2 [2] (setting [6]) worked out at 3 ± 1.1 µM. In data set [3], the “Particle size (with Tween 20)” value was 7.5 (40 μM) nm and the “Particle size (no Tween)” value was 966 (40 μM) nm. The same molecule displayed a CC50 at 24 h in [5] of over 50 µM. In [4] (setting [8]), this molecule yielded a half-life of 4.2 min. In addition, in the data set on DENV2 (setting [10]), the IC90 stood at 7.2 ± 3.5 µM.
As to `Oc1ccc(C2NCCc3c2[nH]c2ccc(Cl)cc32)cc1O` (stereo not drawn) [Compound C200-9144], on DENV2 sE2 [1], binding was put at a Kd of 1.2 µM. In the data set on VSV-eGFP, the “inhibition of VSV-eGFP in counter screen” value is recorded as “less potency”, the inhibition at 5 µM is 76% and the inhibition at 10 µM is 77%. The IC50 at DENV2 sE2 [2] (setting [6]) came out at 2.6 ± 1.3 µM. Further, in data set [3], the “Particle size (with Tween 20)” value is recorded as 8.3 (40 μM) nm and the “Particle size (no Tween)” value is listed as 1443 (40 μM) nm. Besides, in data set [5], the CC50 at 24 h was over 50 µM. In data set [4] (setting [8]), the half-life was 55.6 min. The IC90 with DENV2 (setting [9]) worked out at 3 µM. For the same molecule, the IC90 in the data set on DENV2 (setting [10]) worked out at 1.2 ± 0.4 µM.
In turn, `CN(CC(=O)N(Cc1ccc(C2CCCCC2)cc1)c1ccc(C(=O)O)cc1)S(=O)(=O)c1c(F)c(F)c(F)c(F)c1F` [Compound S7337] yielded a Kd at DENV2 sE2 [1] of 1.3 µM. Also, the “inhibition of VSV-eGFP in counter screen” value with VSV-eGFP is reported as “less potency”. The IC50 on DENV2 sE2 [2] (setting [6]) was 4.1 ± 1.8 µM; against AmpC β-lactamase (IC50 (AmpC), without detergent), over 100 µM; on AmpC β-lactamase (setting [7]), over 100 µM. Besides, the “Particle size (with Tween 20)” value in [3] is 8.2 (40 μM) nm. For the same molecule, in data set [3], the “Particle size (no Tween)” value was 144 (40 μM) nm. Moreover, the CC50 at 24 h in data set [5] is 12.7 µM. The molecule further had a half-life in data set [4] (setting [8]) of 3.2 min. Besides, the IC90 with DENV2 (setting [9]) is 3 µM; in the data set on DENV2 (setting [10]) it was 2.7 ± 1 µM.
Take `NC(=O)c1cccc(-c2cc(Nc3ccc(OC(F)(F)F)cc3)ncn2)c1` [GNF2, reference compound]: on DENV2 sE2 [2] (GNF2-biotin on donor beads, His6-tagged DENV2 sE2 on acceptor beads), the “competition of AlphaScreen signal” value is reported as “competed away in a dose-dependent fashion”.
On to `COc1ccc(Nc2cc(C)c3cc(NC(=O)c4ccc(N(C)C)cc4)ccc3n2)cc1` [Compound C066-4182], for which the Kd on DENV2 sE2 [1] came to 2.2 µM. Besides, in the data set with VSV-eGFP, the inhibition at 5 µM was found to be 5% and the inhibition at 10 µM came out at 22%. Besides, the IC50 at DENV2 sE2 [2] (setting [6]) was 1.4 ± 1.1 µM. The same molecule yielded a CC50 at 24 h in [5] of over 50 µM. In data set [4] (setting [8]), this molecule displayed a half-life of 5.3 min. In addition, the IC90 with DENV2 (setting [10]) was determined as 17 ± 4.5 µM.
Regarding `Cc1nc2c(C(=O)NCC3CCCN(C)C3)cnn2c(O)c1Cc1ccc(F)cc1` (stereo not drawn) [JBJ-16-104], the “IC50 (AlphaScreen)” value at DENV2 sE2 [2] (Table 2) was “No competition”.
`COc1cc(C(=O)NS(=O)(=O)c2ccccc2C)ccc1Cc1cn(C)c2ccc(NC(=O)OC3CCCC3)cc12` [Compound S1633] showed a Kd at DENV2 sE2 [1] of 5.2 µM. Besides, in the data set with VSV-eGFP, the inhibition at 5 µM worked out at 12% and the inhibition at 10 µM was 40%. Moreover, the IC50 on DENV2 sE2 [2] (setting [6]) worked out at 3.1 ± 1 µM. For the same molecule, in data set [3], the “Particle size (with Tween 20)” value was 9.2 (40 μM) nm and the “Particle size (no Tween)” value is on record as 823 (40 μM) nm. The CC50 at 24 h in “in vitro” is 50 µM. Further, the IC50 at AmpC β-lactamase (IC50 (AmpC), without detergent) turned out to be 36.6 µM. The IC50 against AmpC β-lactamase (setting [7]) is over 100 µM. For the same molecule, the half-life in data set [4] (setting [8]) turned out to be 37.7 min. Moreover, in the data set on DENV2 (setting [10]), the IC90 came out at 7 ± 2.8 µM.
Regarding `CCCc1nn2c(=O)cc(CSc3nc(-c4ccc(C)cc4)nc4cc(=O)[nH]n34)nc2s1` [Compound G199-0398], in the data set on VSV-eGFP, the “inhibition of VSV-eGFP in counter screen” value is “strong inhibition efficiency”, the inhibition at 5 µM stood at 33% and the inhibition at 10 µM worked out at 59%. The IC50 at DENV2 sE2 [2] (setting [6]) was 7 ± 3 µM. Besides, in data set [3], the “Particle size (with Tween 20)” value was 7.2 (40 μM) nm and the “Particle size (no Tween)” value is 268 (40 μM) nm. The molecule further had a CC50 at 24 h in [5] of 68 µM. Further, in data set [4] (setting [8]), the half-life was 70.6 min. The molecule also showed a half-life in data set [4] (stability half-life (text, printed Ti)) of about 70 min. The IC90 with DENV2 (setting [10]) came out at 8.8 ± 0.2 µM.
For `Cc1nc2c(C(=O)NC3CCN(C)CC3)cnn2c(O)c1Cc1ccc(F)cc1` [JBJ-16-103], the “IC50 (AlphaScreen)” value against DENV2 sE2 [2] (Table 2) is given as “No competition”.
For the molecule `CCOc1ccc(CCNC(=O)c2cnn3c(O)cc(C4CCN(C(=O)OC(C)(C)C)CC4)nc23)cc1` [Compound C429-0385], at DENV2 sE2 [2] (Table 3), the IC50 was 7.6 µM and 5.3 µM. Further, in data set [5], the CC50 at 24 h was over 100 µM. Also, in the data set with DENV1, 2, 3, 4; ZIKV, the EC50 is 0.6 µM. Besides, the IC90 in the data set on DENV2 (DENV2, read-out: IC90 (DENV2 infectivity)) was about 3 µM.
Take `Cc1ccc(CCNC(=O)c2cnn3c(O)c(Cc4cc(C)ccc4C)c(C)nc23)cc1` [Compound K786-9739]: the Kd at DENV2 sE2 [1] amounted to 1.3 µM. Also, in the data set with VSV-eGFP, the inhibition at 5 µM is 35% and the inhibition at 10 µM was 63%. The molecule also displayed an IC50 at DENV2 sE2 [2] (setting [6]) of 3 ± 1.7 µM. Moreover, in [3], the “Particle size (with Tween 20)” value was 7.1 (40 μM) nm and the “Particle size (no Tween)” value was 628 (40 μM) nm. The CC50 at 24 h in data set [5] was 81 µM. Besides, the half-life in data set [4] (setting [8]) is 14.9 min. For the same molecule, the IC90 in the data set with DENV2 (setting [9]) is 3 µM. In addition, the IC90 in the data set with DENV2 (setting [10]) is 3.1 ± 0.1 µM.
In turn, `Cc1nc2c(C(=O)NCc3ccc4c(c3)OCO4)cnn2c(O)c1Cc1ccccc1F` [Compound C218-0288] gave an IC50 against DENV2 sE2 [2] (Table 3) of 1.9 µM.

Broadly, the Kd is the equilibrium constant for the complex coming apart. A higher Kd goes with lower affinity. Usually IC50 stands for the concentration that inhibits the measured activity by half. The half-life is the time needed for the level to fall by half in the phase considered. Read a high half-life as slow decline. In general, IC90 refers to the concentration needed for an effect of 90%. What is called EC50 is the concentration at which the effect is half-maximal.
